Source: publication PMC6832239, “The Effects of a Novel Series of KTTKS Analogues on Cytotoxicity and Proteolytic Activity” (Molecules, 2019)
Read-outs that look alike come from different tables or passages of the source.

Columns and labels:
[1] = target: T1, plasmin (Homo sapiens, UniProt P00747); experiment: Amidolytic activity of plasmin (chromogenic substrate H-D-Val-Leu-Lys-pNA); assay type: biochemical; conditions: amidolytic activity; Tris pH 7.4, 37 °C; IC50 by extrapolation using a linear plot; error 5%; read-out: IC50 Plasmin
T1 construct: purchased Chromogenix (Milano, Italy)
T1 sequence (P00747 581-810 limits assumed): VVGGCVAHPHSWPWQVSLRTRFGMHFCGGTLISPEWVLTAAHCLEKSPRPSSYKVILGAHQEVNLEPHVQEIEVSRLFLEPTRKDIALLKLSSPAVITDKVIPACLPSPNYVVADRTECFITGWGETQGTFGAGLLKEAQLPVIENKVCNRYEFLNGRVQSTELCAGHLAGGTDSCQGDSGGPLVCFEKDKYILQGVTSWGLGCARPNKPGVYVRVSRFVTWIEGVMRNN
T1 sequence (P00747 97-580 partner limits assumed): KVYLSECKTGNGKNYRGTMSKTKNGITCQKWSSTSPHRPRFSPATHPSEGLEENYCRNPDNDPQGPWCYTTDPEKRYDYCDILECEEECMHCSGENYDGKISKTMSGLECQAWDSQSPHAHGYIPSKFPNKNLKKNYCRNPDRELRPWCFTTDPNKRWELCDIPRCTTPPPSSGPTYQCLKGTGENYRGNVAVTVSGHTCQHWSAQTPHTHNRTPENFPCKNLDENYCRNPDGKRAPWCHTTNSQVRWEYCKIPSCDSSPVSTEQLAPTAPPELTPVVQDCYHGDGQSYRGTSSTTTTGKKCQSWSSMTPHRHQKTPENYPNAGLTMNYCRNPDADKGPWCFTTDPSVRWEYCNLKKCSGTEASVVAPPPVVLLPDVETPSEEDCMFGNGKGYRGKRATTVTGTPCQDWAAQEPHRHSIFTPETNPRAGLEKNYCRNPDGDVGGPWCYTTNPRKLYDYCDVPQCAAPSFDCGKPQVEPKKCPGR
Protocol: (§1) The determination of amidolytic activity was performed as previously described by Okada. A detailed description of the method is given below: 0.2 mL of the examined peptides (0.15 M NaCl as contro), a buffer, and 0.1 mL of enzyme solution were mixed. The final peptide concentrations were: 0.2 mM, 2 mM, and 20 mM. The mixture was incubated at 37 °C for 3 min; then the synthetic substrate solution was added in the same buffer. After 20 min of incubation, the reaction was stopped by adding 0.1 mL of 50% acetic acid and the absorbance of the released p-nitroaniline was measured at 405 nm. The mean values from three independent experiments done in duplicate are presented. A method error of 5% was adopted as statistical error. IC50 value was considered as the concentration of inhibitor that reduces absorbance by 50%, compared with absorbance measured under the same conditions without an inhibitor. IC50 was calculated mathematically by extrapolation using a linear plot. IC50 values are presented in Table 1 and Table 2, and graphically in Figure 1.
(§2) The buffers and the enzyme solutions included: • Tris buffer—0.6 mL (pH 8.8), enzyme: urokinase (50 units/mL), synthetic substrate: pyro-Glu-Gly-Arg-pNA·HCl (0.1 mL, 3 mM); • Tris buffer—0.5 mL (pH 8.4), enzyme: thrombin (1 units/mL), synthetic substrate: H-D-Phe-Pip-Arg-pNA (0.2 mL, 0.75 mM); • Tris buffer—0.5 mL (pH 7.4), enzyme: plasmin (0.4 units/mL), synthetic substrate: H-D-Val-Leu-Lys-pNA (0.2 mL, 3 mM); • Borate buffer—0.5 mL (pH 7.5), enzyme: trypsin (0.4 units/mL), synthetic substrate: Bzl-L-Arg-pNA·HCl (0.2 mL, 8 mM); • Tris buffer—0.6 mL (pH 9.0), enzyme: kallikrein (3 units/mL), synthetic substrate: H-D-Val-Leu-Arg-pNA·2HCl (0.1 mL, 75 mM); • Tris buffer—0.6 mL (pH 8.4), enzyme: t-PA ([…]), synthetic substrate: H-D-Ile-Pro-Arg-pNA (0.1 mL, 10 mM) • Tris buffer—0.6 mL (pH 9.0), enzyme: chymotrypsin (0.4 units/mL), synthetic substrate: Suc-Phe-pNA (0.2 mL, 8 mM)

[2] = target: T2, urokinase (Homo sapiens, UniProt P00749); experiment: Amidolytic activity of urokinase (chromogenic substrate pyro-Glu-Gly-Arg-pNA); assay type: biochemical; conditions: amidolytic activity; Tris pH 8.8, 37 °C; IC50 by extrapolation using a linear plot; error 5%; read-out: IC50 Urokinase
T2 construct: purchased Sigma (Schnelldorf, Germany)
Protocol: as §1, §2

[3] = target: T3, thrombin (Bos taurus, UniProt P00735); experiment: Amidolytic activity of thrombin (chromogenic substrate H-D-Phe-Pip-Arg-pNA); assay type: biochemical
T3 construct: purchased Lubelska Wytwórnia Szczepionek (Lublin, Poland)
Protocol: The determination of amidolytic activity was performed as previously described by Okada. A detailed description of the method is given below: 0.2 mL of the examined peptides (0.15 M NaCl as contro), a buffer, and 0.1 mL of enzyme solution were mixed. The final peptide concentrations were: 0.2 mM, 2 mM, and 20 mM. The mixture was incubated at 37 °C for 3 min; then the synthetic substrate solution was added in the same buffer. […] The mean values from three independent experiments done in duplicate are presented. A method error of 5% was adopted as statistical error. […] IC50 was calculated mathematically by extrapolation using a linear plot.

[4] = Viability of fibroblast cells, MTT assay; assay type: cell-based, Human; conditions: human, primary dermal fibroblast cells
Protocol: Viability of fibroblast cells was examined with the use of the MTT assay. MTT, a yellow tetrazole, is reduced to purple formazan only in living cells. Absorbance of the coloured solution was measured by a spectrophotometer.
These studies were performed on primary dermal fibroblasts cells. The cells were maintained in DMEM supplemented with 10% fetal bovine serum (FBS), 2 mM glutamin, 50 U/mL penicillin and […] streptomycin at 37 °C in a 5% CO2 incubator. For experiments, cells cultures were plated at a density of 1 × 10^6/well in six-well culture plates (Costar, St. Louis, MO, USA) in 2 mL of growth medium. Cells reached about 80% of confluency at day 2 were used for the assays.
Toxicity of the tested substances was determined using an MTT [3-(4,5-dimethylthiazol-2-yl)-2,5-diphenyltetrazolium bromide)] assay. Palmitoyl and lipoyl peptides were dissolved in DMSO (dimethyl sulfoxide), the other peptides in DMEM, and added to the cell culture medium. Simultaneously, the same concentrations of DMSO without peptides were added to cells, serving as controls. The final peptide concentrations were: 1 μM, 10 μM, and 100 μM. After 24 h incubation, the cells cultured with the tested compounds were washed with phosphate-buffered saline (PBS) and then incubated for 4 h in 2 mL of MTT solution (5 mg/mL). After removing the medium, the cells were lysed in 200 μL of DMSO with 20 μL of Sorensen’s buffer (pH 10.5, 0.1 mol/L glycine with 0.1 mol/L NaCl). The absorbance of converted dye in living cells was measured at a wavelength of 570 nm. The mean values ± SD from three independent experiments done in duplicate are presented.

[5] = amidolytic activity, Tris pH 8.4, 37 °C, IC50 by extrapolation using a linear plot, error 5%, read-out: IC50 Thrombin
[6] = 1 µmol/L, 24 h, MTT, ± 2, read-out: Viability of fibroblast cells
[7] = 10 µmol/L, 24 h, MTT, ± 2, read-out: Viability of fibroblast cells
[8] = 100 µmol/L, 24 h, MTT, ± 2, read-out: Viability of fibroblast cells

C[C@@H](O)[C@H](NC(=O)[C@H](CCCCN)NC(=O)CCCCC1CCSS1)C(=O)N[C@H](C(=O)N[C@@H](CCCCN)C(=O)N[C@@H](CO)C(N)=O)[C@@H](C)O (mixture of isomers) [Peptide 7, Lip-Lys-Thr-Thr-Lys-Ser-NH2]
IC50 [1]: 0.58 ± 0.029 mM
IC50 [2]: 15.1 ± 0.75 mM
IC50 [3, 5]: 11.7 ± 0.58 mM
viability at 24 h, 1 µmol/L [4, 6]: 97%
viability at 24 h, 10 µmol/L [4, 7]: 89%
viability at 24 h, 100 µmol/L [4, 8]: 87%

C[C@@H](O)[C@H](NC(=O)[C@H](CCCCN)NC(=O)CCCCC1CCSS1)C(=O)N[C@H](C(=O)N[C@@H](CCCNC(=N)N)C(=O)N[C@@H](CO)C(=O)O)[C@@H](C)O (mixture of isomers) [Peptide 11, Lip-Lys-Thr-Thr-Arg-Ser-OH]
IC50 [1]: 0.24 ± 0.012 mM
IC50 [3, 5]: 10.9 ± 0.54 mM
viability at 24 h, 1 µmol/L [4, 6]: 102%
viability at 24 h, 10 µmol/L [4, 7]: 105%
viability at 24 h, 100 µmol/L [4, 8]: 98%

C[C@@H](O)[C@H](NC(=O)[C@H](CCCCN)NC(=O)CCCCC1CCSS1)C(=O)N[C@H](C(=O)N[C@@H](CCCNC(=N)N)C(=O)N[C@@H](CO)C(N)=O)[C@@H](C)O (mixture of isomers) [Peptide 15, Lip-Lys-Thr-Thr-Arg-Ser-NH2]
IC50 [1]: 0.69 ± 0.035 mM
IC50 [2]: 3.47 ± 0.17 mM
IC50 [3]: 4.11 ± 0.21 mM
viability at 24 h, 1 µmol/L [4]: 112%
viability at 24 h, 10 µmol/L [4]: 122%
viability at 24 h, 100 µmol/L [4]: 115%

C[C@@H](O)[C@H](NC(=O)[C@H](CCCNC(=N)N)NC(=O)CCCCC1CCSS1)C(=O)N[C@H](C(=O)N[C@@H](CCCNC(=N)N)C(=O)N[C@@H](CO)C(=O)O)[C@@H](C)O (mixture of isomers) [Peptide 19, Lip-Arg-Thr-Thr-Arg-Ser-OH]
IC50 [1]: 1.01 ± 0.051 mM
IC50 [3, 5]: 1.84 ± 0.092 mM
viability at 24 h, 1 µmol/L [4, 6]: 79%
viability at 24 h, 10 µmol/L [4, 7]: 81%
viability at 24 h, 100 µmol/L [4, 8]: 90%

C[C@@H](O)[C@H](NC(=O)[C@H](CCCNC(=N)N)NC(=O)CCCCC1CCSS1)C(=O)N[C@H](C(=O)N[C@@H](CCCNC(=N)N)C(=O)N[C@@H](CO)C(N)=O)[C@@H](C)O (mixture of isomers) [Peptide 23, Lip-Arg-Thr-Thr-Arg-Ser-NH2]
IC50 [1]: 1.89 ± 0.094 mM
IC50 [2]: 4.67 ± 0.23 mM
IC50 [3, 5]: 2.36 ± 0.12 mM
viability at 24 h, 1 µmol/L [4, 6]: 89%
viability at 24 h, 10 µmol/L [4, 7]: 79%
viability at 24 h, 100 µmol/L [4, 8]: 88%

C[C@@H](O)[C@H](NC(=O)[C@H](CCCNC(=N)N)NC(=O)CCCCC1CCSS1)C(=O)N[C@H](C(=O)N[C@@H](CCCCN)C(=O)N[C@@H](CO)C(=O)O)[C@@H](C)O (mixture of isomers) [Peptide 27, Lip-Arg-Thr-Thr-Lys-Ser-OH]
IC50 [1]: 2.12 ± 0.11 mM
IC50 ([3]; converted from IC50 of Table 1, read-out: -logIC50 Thrombin (converted)): 4.27 mM
viability at 24 h, 1 µmol/L [4, 6]: 105%
viability at 24 h, 10 µmol/L [4, 7]: 91%
viability at 24 h, 100 µmol/L [4, 8]: 80%

C[C@@H](O)[C@H](NC(=O)[C@H](CCCNC(=N)N)NC(=O)CCCCC1CCSS1)C(=O)N[C@H](C(=O)N[C@@H](CCCCN)C(=O)N[C@@H](CO)C(N)=O)[C@@H](C)O (mixture of isomers) [Peptide 31, Lip-Arg-Thr-Thr-Lys-Ser- NH2]
IC50 [1]: 3.23 ± 0.16 mM
IC50 [2]: 4.57 ± 0.23 mM
IC50 [3, 5]: 5.59 ± 0.28 mM
viability at 24 h, 1 µmol/L [4, 6]: 107%
viability at 24 h, 10 µmol/L [4, 7]: 112%
viability at 24 h, 100 µmol/L [4, 8]: 117%
